Data: article PMC7699745, “The Search for New Anticonvulsants in a Group of (2,5-Dioxopyrrolidin-1-yl)(phenyl)Acetamides with Hybrid Structure—Synthesis and In Vivo/In Vitro Studies” (International Journal of Molecular Sciences, 2020)
Read-outs that look alike come from different tables or passages of the source.

Key:
MES seizures, mice [1] = test: Maximal electroshock (MES) seizure test; type: in vivo; settings: Mus musculus, ip; for responders at 100 mg/kg: 0.5 h, i.p.; for ED50: at TPE (0.5 h; LTG 1.0 h), 95% confidence intervals in parentheses
[2] = system: 6 Hz (32 mA) seizures, mice; test: Psychomotor 6 Hz (32 mA) seizure model; type: in vivo; settings: for responders at 100 mg/kg / ED50: Mus musculus, ip; for responders at 100 mg/kg: read-out: 6 Hz (32 mA) test, number of mice protected / number of mice tested (converted); for ED50: at TPE (0.5 h; LTG 1.0 h), 95% confidence intervals in parentheses
Na+ channel (site 2) = test: Radioligand binding, Na+ channel (site 2); settings: 10 µM; rat cerebral cortex
Experimental: (§1) Taking into consideration the structural similarities of molecules described in the current manuscript with their chemical prototypes AS-1 and DK-1, the binding studies toward aforementioned molecular targets were performed commercially for several active substances from each subseries (3, 4, 21, 24, 25, 27, 29, and 30). Furthermore, we also tested two other and well-known targets for AEDs, namely, the Cav2.2 (N-type) calcium channel and gamma-aminobutyric acid (GABA)-A receptor. With the aim of excluding potentially dangerous proarrhythmic properties for each compound, their interaction with the potassium (hERG) channel was also tested.
(§2) Binding studies were carried out commercially in Eurofines Laboratories (Poitiers, France). The functional assays were performed in Eurofins Panlabs Discovery Services Taiwan, Ltd. (New Taipei City, Taiwan). All procedures are described elsewhere (for details, see Table S4 in Supplementary Materials).
(§3) Binding studies were carried out commercially in Eurofines Laboratories (Poitiers, France). The
(§4) functional assays were performed in Eurofins Panlabs Discovery Services Taiwan, Ltd. (New Taipei
(§5) City, Taiwan). All procedures are described elsewhere (Table S4).
(§6) Table S4. In vitro binding and functional assays. […]

Cav1.2 channel = target: T1, Cav1.2 channel (Rattus norvegicus, UniProt P22002); test: Radioligand binding, Cav1.2 channel; design: inhibition: dose or concentration left out as unconfirmed; settings: for binding to voltage-gated calcium channels Cav1.2: concentration of 10 µM; for inhibition: rat cerebral cortex, read-out: % Inhibition of Control Specific Binding, Cav1.2 Channel (Antagonist Radioligand)
T1 construct: tissue Eurofins (Poitiers, France), contract assay; host or cells: rat cerebral cortex (own knowledge of the vendor's assay)
Experimental: as §1, §2, §3, §4, §5
(§7) Table S4. In vitro binding and functional assays.
(§8) GABA-A receptor (α1,β2,γ2)
(§9) Potassium channel (hERG) 14
(§10) Cav1.2 (h) calcium ion channel cell based antagonist calcium flux assay 16,17

Cav2.2 channel = target: T2, Cav2.2 channel (Rattus norvegicus, UniProt Q02294); test: Radioligand binding, Cav2.2 channel; design: dose or concentration left out as unconfirmed; settings: rat cerebral cortex; read-out: % Inhibition of Control Specific Binding, Cav2.2 Channel (Antagonist Radioligand)
T2 construct: tissue Eurofins (Poitiers, France), contract assay; host or cells: rat cerebral cortex (own knowledge of the vendor's assay)
T2 sequence (Q02294 whole entry): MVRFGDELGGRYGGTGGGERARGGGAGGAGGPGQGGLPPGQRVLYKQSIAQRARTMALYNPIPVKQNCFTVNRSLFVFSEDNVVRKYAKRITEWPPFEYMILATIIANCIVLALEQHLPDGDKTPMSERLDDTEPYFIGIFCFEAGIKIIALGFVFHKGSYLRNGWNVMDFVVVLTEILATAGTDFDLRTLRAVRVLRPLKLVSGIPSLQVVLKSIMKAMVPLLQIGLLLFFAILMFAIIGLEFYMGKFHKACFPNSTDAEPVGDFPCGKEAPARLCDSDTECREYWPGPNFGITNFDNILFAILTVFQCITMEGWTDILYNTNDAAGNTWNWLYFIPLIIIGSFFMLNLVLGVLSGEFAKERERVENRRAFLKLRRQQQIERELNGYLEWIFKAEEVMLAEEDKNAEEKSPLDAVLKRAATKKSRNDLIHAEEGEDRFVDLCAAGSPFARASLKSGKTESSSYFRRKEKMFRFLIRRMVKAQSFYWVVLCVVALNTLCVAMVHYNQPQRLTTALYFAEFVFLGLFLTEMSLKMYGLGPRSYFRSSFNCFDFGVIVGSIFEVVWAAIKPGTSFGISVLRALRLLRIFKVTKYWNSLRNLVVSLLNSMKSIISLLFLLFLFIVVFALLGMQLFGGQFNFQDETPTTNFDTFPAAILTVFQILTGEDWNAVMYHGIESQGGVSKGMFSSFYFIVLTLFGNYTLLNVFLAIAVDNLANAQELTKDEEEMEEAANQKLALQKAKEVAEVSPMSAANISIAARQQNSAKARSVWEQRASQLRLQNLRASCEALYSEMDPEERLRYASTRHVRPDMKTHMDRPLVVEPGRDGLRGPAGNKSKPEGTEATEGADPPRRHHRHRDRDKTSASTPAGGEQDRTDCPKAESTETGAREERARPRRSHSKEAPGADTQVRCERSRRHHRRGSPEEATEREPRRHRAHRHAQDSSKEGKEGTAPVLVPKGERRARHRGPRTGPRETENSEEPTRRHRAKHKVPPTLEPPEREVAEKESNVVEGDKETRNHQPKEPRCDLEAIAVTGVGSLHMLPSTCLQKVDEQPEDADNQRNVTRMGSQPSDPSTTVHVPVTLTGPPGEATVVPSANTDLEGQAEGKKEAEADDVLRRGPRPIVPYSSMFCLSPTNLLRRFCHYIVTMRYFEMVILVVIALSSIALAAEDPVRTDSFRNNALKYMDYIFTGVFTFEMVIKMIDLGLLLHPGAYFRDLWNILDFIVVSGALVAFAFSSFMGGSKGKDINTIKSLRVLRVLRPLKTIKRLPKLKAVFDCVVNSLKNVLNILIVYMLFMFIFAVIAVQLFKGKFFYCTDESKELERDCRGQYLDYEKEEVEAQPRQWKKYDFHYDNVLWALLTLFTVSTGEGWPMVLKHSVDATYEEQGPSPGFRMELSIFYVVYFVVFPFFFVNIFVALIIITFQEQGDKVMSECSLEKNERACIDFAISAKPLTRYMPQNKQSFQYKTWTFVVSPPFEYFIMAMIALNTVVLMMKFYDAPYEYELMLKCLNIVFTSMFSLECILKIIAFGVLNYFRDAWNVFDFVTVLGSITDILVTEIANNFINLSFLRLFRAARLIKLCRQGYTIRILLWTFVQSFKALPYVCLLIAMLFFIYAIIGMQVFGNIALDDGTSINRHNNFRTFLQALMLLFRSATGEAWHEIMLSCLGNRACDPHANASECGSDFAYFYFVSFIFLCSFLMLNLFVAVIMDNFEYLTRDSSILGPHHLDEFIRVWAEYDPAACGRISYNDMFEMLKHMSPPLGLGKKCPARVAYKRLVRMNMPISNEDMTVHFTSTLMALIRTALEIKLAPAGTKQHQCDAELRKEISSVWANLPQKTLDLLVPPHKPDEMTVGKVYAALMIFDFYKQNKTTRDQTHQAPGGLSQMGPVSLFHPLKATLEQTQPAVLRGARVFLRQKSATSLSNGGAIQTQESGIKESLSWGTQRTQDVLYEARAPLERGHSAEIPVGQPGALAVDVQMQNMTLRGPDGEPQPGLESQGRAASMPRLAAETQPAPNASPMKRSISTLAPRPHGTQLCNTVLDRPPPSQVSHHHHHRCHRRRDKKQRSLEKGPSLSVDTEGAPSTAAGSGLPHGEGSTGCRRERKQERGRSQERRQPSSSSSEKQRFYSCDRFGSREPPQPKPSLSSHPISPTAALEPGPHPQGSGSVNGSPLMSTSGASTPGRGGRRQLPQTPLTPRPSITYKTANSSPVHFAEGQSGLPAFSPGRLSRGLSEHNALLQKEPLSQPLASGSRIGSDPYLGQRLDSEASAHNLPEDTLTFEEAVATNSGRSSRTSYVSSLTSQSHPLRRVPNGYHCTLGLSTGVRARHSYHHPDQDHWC
T2 sequence (P54287 whole entry partner): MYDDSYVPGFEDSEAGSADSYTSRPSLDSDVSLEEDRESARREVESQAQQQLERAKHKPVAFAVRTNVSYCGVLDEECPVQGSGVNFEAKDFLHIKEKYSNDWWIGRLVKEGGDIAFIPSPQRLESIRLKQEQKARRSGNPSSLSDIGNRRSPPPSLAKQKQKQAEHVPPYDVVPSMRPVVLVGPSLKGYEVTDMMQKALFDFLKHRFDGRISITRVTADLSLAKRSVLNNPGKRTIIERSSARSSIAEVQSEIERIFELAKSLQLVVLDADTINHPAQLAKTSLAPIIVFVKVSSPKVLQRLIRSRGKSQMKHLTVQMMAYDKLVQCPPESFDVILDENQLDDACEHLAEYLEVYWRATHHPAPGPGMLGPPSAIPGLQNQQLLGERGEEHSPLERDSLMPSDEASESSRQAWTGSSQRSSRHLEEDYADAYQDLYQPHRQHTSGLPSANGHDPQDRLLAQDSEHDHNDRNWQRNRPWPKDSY
T2 sequence (P54290 25-944 partner limits assumed): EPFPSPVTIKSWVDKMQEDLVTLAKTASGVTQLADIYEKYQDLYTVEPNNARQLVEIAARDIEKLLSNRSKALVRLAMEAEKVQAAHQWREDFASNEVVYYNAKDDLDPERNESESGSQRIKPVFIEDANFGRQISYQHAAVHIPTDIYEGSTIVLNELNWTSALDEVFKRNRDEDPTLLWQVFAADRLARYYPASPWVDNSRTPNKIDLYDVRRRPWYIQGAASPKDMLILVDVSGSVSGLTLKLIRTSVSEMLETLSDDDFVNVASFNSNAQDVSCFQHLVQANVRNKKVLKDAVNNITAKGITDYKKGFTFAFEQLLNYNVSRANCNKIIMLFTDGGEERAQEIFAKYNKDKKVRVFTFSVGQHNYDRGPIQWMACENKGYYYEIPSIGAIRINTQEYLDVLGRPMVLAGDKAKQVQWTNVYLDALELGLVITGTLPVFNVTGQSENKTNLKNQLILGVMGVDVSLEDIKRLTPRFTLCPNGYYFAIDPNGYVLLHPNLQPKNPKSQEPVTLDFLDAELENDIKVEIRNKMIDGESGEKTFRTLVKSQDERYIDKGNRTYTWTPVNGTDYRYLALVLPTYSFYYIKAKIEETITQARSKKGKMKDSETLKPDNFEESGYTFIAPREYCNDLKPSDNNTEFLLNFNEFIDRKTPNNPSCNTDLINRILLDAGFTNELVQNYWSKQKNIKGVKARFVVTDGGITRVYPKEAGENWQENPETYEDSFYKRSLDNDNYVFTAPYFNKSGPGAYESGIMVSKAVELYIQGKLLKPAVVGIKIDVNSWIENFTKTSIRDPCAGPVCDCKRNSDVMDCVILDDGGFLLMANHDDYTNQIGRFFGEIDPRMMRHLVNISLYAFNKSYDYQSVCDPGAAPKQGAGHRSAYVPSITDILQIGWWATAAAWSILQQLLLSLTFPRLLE
T2 sequence (P54290 945-1091 partner limits assumed): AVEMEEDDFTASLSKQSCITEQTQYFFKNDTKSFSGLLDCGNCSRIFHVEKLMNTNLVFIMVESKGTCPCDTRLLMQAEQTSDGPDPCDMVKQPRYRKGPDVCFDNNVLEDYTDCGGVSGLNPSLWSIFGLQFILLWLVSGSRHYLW
Experimental: as §1, §2, §3, §4, §5, §7, §8, §9, §10

[3] = target: T3, GABA-A receptor (α1,β2,γ2) (Homo sapiens, UniProt P14867+P47870); test: Radioligand binding, GABA-A receptor; design: dose or concentration left out as unconfirmed; settings: rat cerebral cortex; read-out: % Inhibition of Control Specific Binding, GABA-A Receptor (α1,β2,γ2) (Agonist Radioligand)
T3 construct: Eurofins (Poitiers, France), contract assay
Experimental: as §1, §2, §3, §4, §5, §7, §8, §9, §10

Potassium channel (hERG) = target: T4, Potassium channel (hERG) (Homo sapiens, UniProt Q12809); test: Binding, potassium channel (hERG); settings: 100 µM; human recombinant (HEK-293 cells)
T4 construct: Eurofins (Poitiers, France), contract assay
T4 sequence (Q12809 whole entry): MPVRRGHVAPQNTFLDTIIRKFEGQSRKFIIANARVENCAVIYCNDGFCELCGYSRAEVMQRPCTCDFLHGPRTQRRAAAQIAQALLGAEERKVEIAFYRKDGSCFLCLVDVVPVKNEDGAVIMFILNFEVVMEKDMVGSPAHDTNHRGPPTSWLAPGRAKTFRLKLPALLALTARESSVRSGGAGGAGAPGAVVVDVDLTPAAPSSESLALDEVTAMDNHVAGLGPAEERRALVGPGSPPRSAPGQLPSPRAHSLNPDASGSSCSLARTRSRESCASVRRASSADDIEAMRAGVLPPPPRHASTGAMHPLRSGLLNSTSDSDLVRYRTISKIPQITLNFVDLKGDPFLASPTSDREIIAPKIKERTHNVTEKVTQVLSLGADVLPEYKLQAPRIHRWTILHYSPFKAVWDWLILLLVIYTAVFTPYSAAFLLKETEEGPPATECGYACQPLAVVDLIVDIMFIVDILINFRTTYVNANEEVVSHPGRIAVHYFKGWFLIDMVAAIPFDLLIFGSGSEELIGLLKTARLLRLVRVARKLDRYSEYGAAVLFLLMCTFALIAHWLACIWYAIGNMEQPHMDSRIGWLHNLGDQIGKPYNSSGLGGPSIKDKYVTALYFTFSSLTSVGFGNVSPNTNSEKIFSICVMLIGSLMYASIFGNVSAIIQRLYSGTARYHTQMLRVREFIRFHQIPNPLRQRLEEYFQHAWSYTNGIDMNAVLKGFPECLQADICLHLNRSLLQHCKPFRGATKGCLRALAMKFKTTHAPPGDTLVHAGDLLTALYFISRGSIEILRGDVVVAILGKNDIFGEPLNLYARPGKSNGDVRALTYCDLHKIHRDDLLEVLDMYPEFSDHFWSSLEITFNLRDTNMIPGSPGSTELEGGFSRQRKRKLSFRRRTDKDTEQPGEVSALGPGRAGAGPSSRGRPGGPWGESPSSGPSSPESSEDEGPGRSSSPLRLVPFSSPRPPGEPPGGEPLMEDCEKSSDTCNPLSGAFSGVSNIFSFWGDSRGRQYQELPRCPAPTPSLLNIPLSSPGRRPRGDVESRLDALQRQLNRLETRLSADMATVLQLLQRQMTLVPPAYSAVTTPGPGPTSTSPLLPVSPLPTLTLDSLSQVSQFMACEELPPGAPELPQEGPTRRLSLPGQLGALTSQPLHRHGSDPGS
Experimental: as §1, §2, §3, §4, §5, §7, §8, §9, §10

[4] = target: T5, Cav1.2 (h) calcium ion channel (Homo sapiens, UniProt Q13936); test: Cav1.2 (h) cell-based antagonist calcium flux assay; settings: for antagonist properties in cell-based flux studies (Cav1.2): 10 µM; for inhibition at 10 µM: HEK293, human recombinant (HEK-293 cells), read-out: % Inhibition of Control Agonist Response, Cav1.2 (h) calcium flux
T5 construct: host or cells: HEK-293
Experimental: as §2, §3, §4, §5, §6, §10

[5] = Metabolic stability in human liver microsomes; type: in vitro ADME; settings: 120 min incubation with HLMs
Excerpt: Human liver microsomes (HLMs) were used for metabolic stability determination. Moreover, the most probable phase I reactions and structures of metabolites were proposed according to ion fragment analyses with the in silico support of MetaSite 6.0.1 software. […] On the other hand, an excellent metabolic stability of compound 24 was observed. Less than 4% of this derivative was converted into double-hydroxylated metabolite M1 (Figures S3, S4, and S7, Supplementary Materials). Finally, two monohydroxylated metabolites (M1, M2) were found in the reaction mixture with HLMs and 30, and around 17% of this compound was metabolized (Figures S5–S7, Supplementary Materials).
These assays were performed on human liver microsomes (HLMs), purchased from Sigma-Aldrich (St. Louis, MO, USA), according to [14].

CYP3A4 = target: T6, CYP3A4 (Homo sapiens, UniProt P08684); test: Luminescent CYP3A4 P450-Glo assay; type: in vitro ADME; settings: 1 µM
T6 construct: purchased Promega (Madison, WI, USA)

CYP2C9 = CYP2C9 (Homo sapiens, UniProt P11712); test: Luminescent CYP2C9 P450-Glo assay
[6] = Rotarod test for acute neurological toxicity; settings: mouse, in vivo, ip
[7] = system: motor coordination of mice; test: Rotarod test for acute neurological toxicity; settings: for impairment of motor coordination of mice: doses as high as 300 mg/kg; for Rotarod test, number of mice / number of mice tested: i.p., 100 mg/kg, 0.5 h
[8] = Parallel artificial membrane permeability assay (PAMPA)
Experimental: (§11) Passive diffusion was tested in the parallel artificial membrane permeability assay (PAMPA) and expressed as the permeability coefficient (Pe). A highly permeable compound, caffeine (CFN), and a poorly permeable compound, norfloxacin (NFX), were used as the references.
(§12) Precoated PAMPA Plate System Gentest™ was provided by Corning, (Tewksbury, MA, USA).

[9] = system: 6 Hz (32 mA) seizures, mice; settings: known AED, background statement; cited from earlier work
in vivo = settings: mouse, ip
MES seizures, mice [10] = settings: known AED, background statement; cited from earlier work
in vitro = settings: PAMPA
Experimental: as §11, §12

PTZ seizures, mice = settings: known AED, background statement; cited from earlier work
[11] = groups of four, read-out: protection in the MES test
[12] = read-out: MES test, number of mice protected / number of mice tested (converted)

Row | Compound | responders at 100 mg/kg (MES seizures, mice [1]; [11]) [%] | responders at 100 mg/kg (MES seizures, mice [1]; [12]) [%] | ED50 (MES seizures, mice [1]) [mg/kg] | responders at 100 mg/kg ([2]; 100 mg/kg, 0.5 h) [%] | ED50 [2] [mg/kg] | % Inhibition of Control Specific Binding, Na+ Channel (Site 2) (Antagonist Radioligand) (Na+ channel (site 2)) [%] | inhibition (Cav1.2 channel) [%] | inhibition (Cav2.2 channel) [%] | inhibition [3] [%] | % Inhibition of Control Specific Binding, Potassium Channel (hERG) (Potassium channel (hERG)) [%] | inhibition at 10 µM [4] [%] | melting point [°C] | TD50 at 0.5 h [6] [mg/kg] | impairment of motor coordination of mice [7] | Rotarod test, number of mice / number of mice tested [7] | also measured
1 | O=C(NCc1cccc(OC(F)(F)F)c1)C(c1ccccc1)N1C(=O)CCC1=O (stereo not shown) [Compound 24, 2-(2,5-Dioxopyrrolidin-1-yl)-2-phenyl-N-(3-(trifluoromethoxy)benzyl)acetamide] | ≥ 50 | 75 | > 130 | 100 | 43.8 | 22.3 | 36.5 | 5.5 | -0.8 | 4.4 | 38.8 | 129.6 to 130.4 | > 300 | did not impair motor coordination | 0/4 | binding to voltage-gated calcium channels Cav1.2 (Cav1.2 channel): moderate binding; antagonist properties in cell-based flux studies (Cav1.2) [4]: moderate antagonist properties; compound converted into metabolites / metabolized [5]: Less than 4%; parent compound remained in the reaction mixture [5]: 96.49%; effect on CYP3A4 activity (CYP3A4): slightly inhibited CYP3A4 activity; CYP2C9 activity, % of control (CYP2C9; 10 and 25 µM): up to 140 % of control; Papp [8]: 10.9 ± 0.5 ×10⁻⁶ cm/s
2 | O=C(NCCc1cccc(C(F)(F)F)c1)C(c1ccccc1)N1C(=O)CCC1=O (stereo not shown) [Compound 29, 2-(2,5-Dioxopyrrolidin-1-yl)-2-phenyl-N-(3-(trifluoromethyl)phenethyl)acetamide] | 100 | 75 | 55.4 | 75 | 49.3 | 18.3 | 44.2 | -0.6 | 2.1 | 3.4 | 45 | 149.2 to 150.4 | 179 |  | 0/4 | binding to voltage-gated calcium channels Cav1.2 (Cav1.2 channel): moderate binding; antagonist properties in cell-based flux studies (Cav1.2) [4]: moderate antagonist properties
3 | O=C(NCCc1cccc(Cl)c1)C(c1ccccc1)N1C(=O)CCC1=O (stereo not shown) [Compound 27, N-(3-Chlorophenethyl)-2-(2,5-dioxopyrrolidin-1-yl)-2-phenylacetamide] |  | 50 |  | 75 | 36.3 | 20.1 | 38.3 | 3.8 | 0.7 | 2.7 | 40 | 137.4 to 138.2 | > 300 |  | 0/4 | binding to voltage-gated calcium channels Cav1.2 (Cav1.2 channel): moderate binding; antagonist properties in cell-based flux studies (Cav1.2) [4]: moderate antagonist properties
4 | CC[C@@H](C(N)=O)N1CCCC1=O [LEV, levetiracetam] |  |  |  |  |  |  |  |  |  |  |  |  |  |  |  | activity in the 6 Hz (32 mA) model [9]: showed efficacy only in the 6 Hz seizure model
5 | Nc1nnc(-c2cccc(Cl)c2Cl)c(N)n1 [LTG, lamotrigine, reference compound] |  |  | 3.1 |  | 6.4 |  |  |  |  |  |  |  |  |  |  | TD50 at 0.5 h (in vivo): 48.3 mg/kg
6 | COC[C@@H](NC(C)=O)C(=O)NCc1ccccc1 [LCS, lacosamide] |  |  |  |  |  |  |  |  |  |  |  |  |  |  |  | activity in the MES model (MES seizures, mice [10]): active; activity in the 6 Hz (32 mA) model [9]: active
7 | O=C(NCCc1ccccc1)C(c1ccccc1)N1C(=O)CCC1=O (stereo not shown) [Compound 25, 2-(2,5-Dioxopyrrolidin-1-yl)-N-phenethyl-2-phenylacetamide] | ≥ 50 | 75 | 87.9 | 75 | 88.9 | 14.8 | 19 | 2.5 | 3.6 | 4.8 |  |  | 210 |  | 1/4 | acute neurological toxicity (rotarod) ([7]; at doses around or below 200 mg/kg): moderate acute neurological toxicity
8 | Nc1ccc(S(=O)(=O)Nc2ccnn2-c2ccccc2)cc1 [SE, sulfaphenazole, reference compound] |  |  |  |  |  |  |  |  |  |  |  |  |  |  |  | effect on CYP2C9 activity (CYP2C9; 1 µM): almost completely blocked CYP2C9 activity
9 | O=C(NCc1ccccc1)C(c1ccccc1)N1C(=O)CCC1=O (stereo not shown) [Compound 14, N-Benzyl-2-(2,5-dioxopyrrolidin-1-yl)-2-phenylacetamide] | ≥ 50 | 50 | > 130 | 50 | 62.9 |  |  |  |  |  |  | 128.3 to 129.9 | > 300 | did not impair motor coordination | 1/4 | protection in the 6 Hz (32 mA) test ([2]; i.p., 100 mg/kg, 0.5 h, groups of four): at least 50%
10 | CCn1cc(C(=O)O)c(=O)c2cc(F)c(N3CCNCC3)cc21 [NFX, norfloxacin] |  |  |  |  |  |  |  |  |  |  |  |  |  |  |  | Papp (in vitro): 0.056 ×10⁻⁶ cm/s
11 | O=C(Nc1ccccc1)C(c1ccccc1)N1C(=O)CCC1=O (stereo not shown) [Compound 3, 2-(2,5-Dioxopyrrolidin-1-yl)-N,2-diphenylacetamide] | ≥ 50 | 50 | > 130 | 75 | 92.5 | 10.8 | 9 | 3.6 | 5.2 | 0.8 |  |  | > 300 | did not impair motor coordination | 0/4 | 
12 | CCC1(C)CC(=O)NC1=O (stereo not shown) [ETX, ethosuximide] |  |  |  |  |  |  |  |  |  |  |  |  |  |  |  | activity in the (sc)PTZ model (PTZ seizures, mice): protected mice only in the scPTZ model
13 | O=C(NCc1ccccc1C(F)(F)F)C(c1ccccc1)N1C(=O)CCC1=O (stereo not shown) [Compound 21, 2-(2,5-Dioxopyrrolidin-1-yl)-2-phenyl-N-(2-(trifluoromethyl)benzyl)acetamide] | ≥ 50 | 50 | 49.6 | 25 |  | 18.8 | 26.6 | 0.2 | 1.2 | 6.3 | 27 | 137.7 to 139.1 | > 300 | did not impair motor coordination | 0/4 | effectiveness in the 6 Hz test ([2]; i.p.): not effective
